Data taken from US3962449A, “Cardioactive bispidones and bispidines” (priority 1974, dated 1976).
Like-named read-outs stand apart in the source and are kept apart here.

Legend:
[1] = tested on: experimentally induced heart rhythm disturbances (aconitine) in rats; experiment: Aconitine-induced heart rhythm disturbances in rats, intravenous pre-treatment; assay type: in vivo, rat; conditions: for ED25 / ED50: Rattus norvegicus, iv; for occurrence of heart rhythm disturbances on pre-treatment: aconitine continuously infused intravenously
From the text: If rats are continuously infused intravenously with aconitine, then serious disturbances of the cardiac rhythm such as extrasystole, ventricular tachycardia, and ventricular flutter, which finally lead to the death of the experimental animals, can be observed on an electrocardiogram. […] This experimental arrhythmic model is checked by means of clinically tested standard therapeutic compounds as to its reliability and is well suited for characterizing antiarrhythmical compounds in experiments on animals [cf. for example, Bianci et al., Arzneim.-Forsch. 18, 845- 850 (1968); Haas und Busch, Arzneim.-Forsch. 18, 401- 407 (1968); Haas et al., Arzneim.-Forsch.21, 1392- 1399 (1971); Marmo, Naunyn-Schmiedeberg's Arch. Pharmakol. 269, 231- 247 (1971); and Strubelt et al., Naunyn-Schmiedeberg's Arch. Pharmakol. 271, 346- 360 (1971.]
The ED25 or ED50 are the intravenous dosages in mg/kg which allow an increase in administered aconitine doses, relative to the control, by 25 or 50%, respectively, before the occurrence of extrasystoles, ventricular tachycardia, and ventricular flutter.

[2] = tested on: left auricle of the heart of guinea pigs; experiment: Functional refractory period and contractility of the isolated left auricle (paired electrical stimulation, adapted from Govier); assay type: cell-based, guinea pig; design: Anti-arrhythmic effect (Refractory period extension) ED25 / Inotropic effect (Contraction force lowering) ED25: unit not given here; conditions: for Anti-arrhythmic effect (Refractory period extension) ED25: effective dose which extends the refractory period by 25%; for Anti-arrhythmic effect (Refractory period extension) ED25 / Inotropic effect (Contraction force lowering) ED25: guinea pig left auricle, up to 30 minutes; for Inotropic effect (Contraction force lowering) ED25: effective dose which lowers the contractional force by 25%; for Therapeutic Breadth (III/II): ratio of inotropic ED25 to anti-arrhythmic ED25
From the text: The experimental procedure utilized paired electrical stimulation in an adaptation of the method of […]. Pharmacol. Exp. […] In this model, the numerous known anti-arrhythmical preparations of differing structure and point of therapeutic attack all show an prolongation of the functional refractory period. The experiment additionally permits a study of the effects of different substances on the contractility of the heart muscles [Reuter und Heeg, Naunyn, Naunyn-Schmiedeberg's Arch. Pharmakol. […] Pharmakol. […] Therefore the experiment is suitable for discovering which substances have the greatest therapeutic range, that is to say, which have the greatest safety margin between the anti-arrhythmic and the negatively inotropically effective dosages. To test the substances, up to 18 and 30 individual experiments were carried out in each case. At least 3 dosages were tested each on 6 auricle preparations and the linear regression functions were calculated[[…] In column II, the […] shown and in column III, the inotropic effect is shown. In column IV, the therapeutic range of the compounds is shown.

[3] = difference between doses producing an anti-arrhythmic effect and a negative inotropic effect; cited from earlier work
[4] = read-out: Ventricular Tachycardia ED25
[5] = read-out: Ventricular Tachycardia ED50
[6] = read-out: Ventricular flutter ED25
[7] = read-out: Ventricular flutter ED50

SMILES	ED25 [1, 4] [mg/kg]	ED50 [1, 5] [mg/kg]	Extrasystoles ED25 ([1]; intravenous, dose allowing 25% increase in aconitine dose relative to control before extrasystoles, rats)	Ventricular flutter ED25 ([1]; intravenous, dose allowing 25% increase in aconitine dose relative to control before ventricular flutter, rats)	Extrasystoles ED50 ([1]; intravenous, dose allowing 50% increase in aconitine dose relative to control before extrasystoles, rats)	Ventricular flutter ED50 ([1]; intravenous, dose allowing 50% increase in aconitine dose relative to control before ventricular flutter, rats)	Anti-arrhythmic effect (Refractory period extension) ED25 [2]	Inotropic effect (Contraction force lowering) ED25 [2]	Therapeutic Breadth (III/II) [2]	therapeutic range [3]	ED25 ([1]; read-out: Extrasystoles ED25) [mg/kg]	ED50 ([1]; read-out: Extrasystoles ED50) [mg/kg]	ED25 [1, 6] [mg/kg]	ED50 [1, 7] [mg/kg]	occurrence of heart rhythm disturbances on pre-treatment ([1]; rats)
C1CCN2CC3CC(CN4CCCCC34)C2C1 (single isomer, unassigned) [Spartein, reference compound]	4.43	9.55	+)	+)	+)	+)	–	–	–	–	–	–	–	–	–
c1ccc(CN(CC2=NCCN2)c2ccccc2)cc1 [Antazolin]	–	–	–	–	–	–	0.164	0.094	0.6	narrow therapeutic range	–	–	–	–	–
CCN(CC)CC(=O)Nc1c(C)cccc1C [Lidocain]	–	–	–	–	–	–	0.47	0.48	1.0	narrow therapeutic range	–	–	–	–	–
c1ccc(CN2CC3CC(C2)CN(Cc2ccccc2)C3)cc1 [N,N'-dibenzyl-bispidine, N,N'-dibenzylbispidine]	0.87	1.23	–	–	–	–	0.034	0.07	2.0	–	1.06	1.76	1.03	1.48	prevented or at least substantially delayed
CC(C)N1CC2CC(CN(CCc3ccccc3)C2)C1 [N-isopropyl-N'-β-phenylethyl-bispidine]	1.41	2.13	–	–	–	–	0.13	0.26	2.0	–	~1.8	~2.3	1.7	2.47	prevented or at least substantially delayed
CCC[N+]12[C@H](O)[C@@H](CC)[C@@H]3C[C@H]1[C@@H]1N(C)c4ccccc4[C@]14C[C@H]2[C@@H]3[C@H]4O [N-n-propylajmalin]	–	–	–	–	–	–	0.0037	0.0015	0.4	–	–	–	–	–	–
